Experimental data taken from PubChem BioAssay AID743506 (Broad Institute, 2014).
pIC50: −log10 of the molar value. Active and inactive are the calls of the source.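 Rule for the calls: active = compounds that block the bursicon-driven reporter signal with IC50 below 35000 nM; inactive = the rest.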

Target: Bursicon receptor (LGR2/rickets), Drosophila melanogaster
Assay: LGR2 bursicon receptor antagonists, dose response, cell-based, HEK293, CRE-luciferase, beta-gal normalized, dry powder, set 3 (AID 743506)
Conditions: bursicon-stimulated, 4 h

Structure (SMILES)	pIC50	IC50
C[C@H](CO)N1C[C@H](C)[C@H](CN(C)C(=O)Nc2ccc(F)cc2)OCCCC[C@H](C)Oc2ccc(NC(=O)C3CCCCC3)cc2C1=O	> 4.46	
C[C@H](CO)N1C[C@H](C)[C@H](CN(C)C(=O)Nc2ccc3c(c2)OCO3)OCCCC[C@H](C)Oc2ccc(NC(=O)C3CCCCC3)cc2C1=O	> 4.46	
COc1ccc(NC(=O)N(C)C[C@@H]2OCCCC[C@H](C)Oc3ccc(NC(=O)C4CCCCC4)cc3C(=O)N([C@H](C)CO)C[C@@H]2C)cc1	> 4.46	
C[C@@H]1CCCCO[C@H](CN(C)C(=O)Nc2ccc(F)cc2)[C@H](C)CN([C@@H](C)CO)C(=O)c2cc(NC(=O)C3CCCCC3)ccc2O1		> 35 µM (inactive)
C[C@H](CO)N1C[C@H](C)[C@H](CN(C)C(=O)Nc2ccccc2)OCCCC[C@H](C)Oc2ccc(NC(=O)C3CCCCC3)cc2C1=O	> 4.46	
